Reference: BindingDB's records for patent US20250268854 (C/O Vesper Bio, 2025)

Assays:
Sortilin [1] = target: T1, Sortilin (Homo sapiens, UniProt Q99523); experiment: Neurotensin Scintillation Proximity Assay
T1 sequence (Q99523 whole entry): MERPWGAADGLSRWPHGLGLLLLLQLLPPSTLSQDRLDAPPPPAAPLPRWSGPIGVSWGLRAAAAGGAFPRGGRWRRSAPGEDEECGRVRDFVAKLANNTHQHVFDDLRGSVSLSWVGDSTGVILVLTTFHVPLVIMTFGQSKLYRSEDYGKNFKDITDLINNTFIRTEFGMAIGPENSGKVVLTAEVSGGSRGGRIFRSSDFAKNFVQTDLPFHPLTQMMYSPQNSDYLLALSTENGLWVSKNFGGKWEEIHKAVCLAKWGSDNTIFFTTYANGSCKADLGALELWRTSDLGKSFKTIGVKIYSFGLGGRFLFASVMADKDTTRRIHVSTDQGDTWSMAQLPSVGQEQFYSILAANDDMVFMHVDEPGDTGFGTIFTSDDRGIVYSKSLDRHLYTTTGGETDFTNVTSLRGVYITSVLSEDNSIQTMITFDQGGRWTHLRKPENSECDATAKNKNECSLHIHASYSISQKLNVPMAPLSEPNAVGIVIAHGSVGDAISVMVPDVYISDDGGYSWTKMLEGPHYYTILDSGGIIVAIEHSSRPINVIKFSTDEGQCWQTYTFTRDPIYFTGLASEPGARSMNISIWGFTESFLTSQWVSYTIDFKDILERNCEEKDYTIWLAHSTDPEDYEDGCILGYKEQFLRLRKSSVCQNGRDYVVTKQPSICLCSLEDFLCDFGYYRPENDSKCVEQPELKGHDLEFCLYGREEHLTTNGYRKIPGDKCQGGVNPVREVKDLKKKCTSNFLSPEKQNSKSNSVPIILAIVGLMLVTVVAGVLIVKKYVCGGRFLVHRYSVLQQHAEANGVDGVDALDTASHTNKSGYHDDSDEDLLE
Method: Compound affinity was determined by measuring the displacement of [3H]-neurotensin binding to h-Sortilin in SPA format. Total volume of 40 μl in 50 mM HEPES pH 7.4 assay buffer containing 100 mM NaCl, 2.0 mM CaCl2, 0.1% BSA and 0.1% Tween-20. […] Dose-response evaluation of compounds was performed with 8 concentrations of drugs (covering 3 decades). IC50 values were calculated by nonlinear regression using the sigmoid concentration-response (variable slope) using CDD Vault software. All values reported are average of at least 2 determinations.

Sortilin [2] = target: T1, Sortilin; experiment: Rapid Kinetics Assay
Method: Compounds were screened at a final assay concentration of 1 μM and a final DMSO concentration was 1%. To achieve this, compounds were diluted in DMSO from 10 mM stocks to 100 μM (100×final assay concentration) then diluted 1:100 in running buffer which contained no DMSO to establish a final assay concentration of compound of 1 μM and a final DMSO concentration of 1% [DMSO].Compounds and DMSO were mixed by plate shaking at 1000 rpm for 60 seconds using a Bioshake instrument.

IC50 (Sortilin [1])	Kd (Sortilin [2])	SMILES
1490 nM		CC(C)(C)CC[C@H](NC1=NC2C=CC=CC2OC2C=CC=CC12)C(=O)O (some centres undefined) [US20250268854, Example 20]
840 nM		CC(C)(C)CC[C@H](NCC1=CC(Cl)CC(Cl)=C1)C(=O)O (some centres undefined) [US20250268854, Example 32]
720 nM	492 nM	COc1cccc(CN[C@@H](CCC(C)(C)C)C(=O)O)c1F [US20250268854, Example 34]
610 nM		CC(C)(C)CC[C@H](NCc1cc2ccccc2[nH]1)C(=O)O [US20250268854, Example 50]
200 nM	56.7 nM	C[C@@H](N[C@@H](CCC(C)(C)C)C(=O)O)c1cccc2c1ccn2C [US20250268854, Example 63]
460 nM	102 nM	C[C@H](N[C@@H](CCC(C)(C)C)C(=O)O)c1cccc2c1ccn2C [US20250268854, Example 64]
1600 nM	26400 nM	CC(C)(C)CC[C@H](NCc1ccncn1)C(=O)O [US20250268854, Example 136]
430 nM	310 nM	COC1C=C(CN[C@@H](CCC(C)(C)C)C(=O)O)C=NC1 (some centres undefined) [US20250268854, Example 144]

SMILES	IC50 (Sortilin [1])	Kd (Sortilin [2])
CC(C)(C)CC[C@H](NCc1cccc(C#N)c1)C(=O)O [US20250268854, Example 142]	1260 nM	
